MIC data for three compounds are collected here from ChEMBL document CHEMBL4052775, “Design, synthesis and in vitro anti-mycobacterial evaluation of gatifloxacin-1H-1,2,3-triazole-isatin hybrids” (Bioorg Med Chem Lett, 2017).

In brackets after ≈: the same amount, converted by molar mass.

This test concerns Mycobacterium tuberculosis. In words: Antimycobacterial activity against isoniazid/rifampicin/ethambutol-resistant Mycobacterium tuberculosis 09710 by two fold dilution method. Type of test: functional.
Take `NNC(=O)c1ccncc1` [ISONIAZID]: the minimum inhibitory concentration (MIC) was > 128 µg/mL. The same measure for `COc1c(N2CCNC(C)C2)c(F)cc2c(=O)c(C(=O)O)cn(C3CC3)c12` (stereo not drawn) [GATIFLOXACIN]: 1 µg/mL (≈ 2.66 µM); for `CO[C@H]1/C=C/O[C@@]2(C)Oc3c(C)c(O)c4c(O)c(c(/C=N/N5CCN(C)CC5)c(O)c4c3C2=O)NC(=O)/C(C)=C\C=C\[C@H](C)[C@H](O)[C@@H](C)[C@@H](O)[C@@H](C)[C@H](OC(C)=O)[C@@H]1C` [RIFAMPIN]: 32 µg/mL (≈ 38.9 µM).
